The text below walks through data of EP0976754B1, “REMEDIES/PREVENTIVES FOR RESPIRATORY DISEASES” (POLA CHEMICAL INDUSTRIES, INC., priority 1997, dated 1998).

Test [1] concerns airway-constriction reaction. As to the kind of experiment: Inhibitory effect on airway-constriction reaction (in vivo), modified Konzet-Lössler method, acetylcholine-elicited. To be noted: Cavia porcellus, iv; test compound 100 mg/2 ml/kg in 1% CMC through esophageal cannula; acetylcholine 20 µg/kg i.v. at 15, 30, 60 and 120 minutes; anesthetized guinea pigs; read-out: Inhibitory rate (%) Acetylcholine. As to the method: (§1) A group of 6 male Hartley albino guinea pigs (250 to 350 g) was anesthetized with pentobarbital, and the tracheae, esophagi, carotid arteries and jugular veins thereof were cannulated. The experiment was performed by connecting the tracheotomic cannula to a respirator incorporated into a circuit of a bronchospasm transducer (modified Konzet-Lössler method), arresting the spontaneous respiration of each guinea pig with choline chloride succinate (1 mg/kg i.v.) and then practicing artificial ventilation, and an airway-constriction reaction was determined by using an overflow rate of ventilation as an index. Acetylcholine (20 µg/kg) or histamine (20 µg/kg) was intravenously administered upon elapsed time of 15, 30, 60 and 120 minutes after a test compound (100 mg/2 ml/kg) suspended in 1% CMC was administered through the esophageal cannula, thereby observing the airway-constriction reaction elicited. For the sake of comparison, theophylline (100 mg/2 ml/kg) commonly and widely used in the treatment for asthma was used. The inhibitory effect on the airway-constriction reaction was expressed by a value calculated as an inhibitory rate (%). It turns out that all the compounds according to the present invention have an excellent inhibitory effect on airway constriction.

The test system of test [2] is airway-constriction reaction. As to the kind of experiment: Inhibitory effect on airway-constriction reaction (in vivo), modified Konzet-Lössler method, histamine-elicited. The settings on record: Cavia porcellus, iv; test compound 100 mg/2 ml/kg in 1% CMC through esophageal cannula; histamine 20 µg/kg i.v. at 15, 30, 60 and 120 minutes; anesthetized guinea pigs; read-out: Inhibitory rate (%) Histamine. The protocol:
as §1

For test [3], the system named is trachea. The test can be described thus: Tracheodilative effect (in vitro), Magnus method, trachea strips contracted with carbachol. The settings on record: Cavia porcellus; relaxation of guinea pig trachea strips contracted with 1 x 10^-6 M carbachol; maximum relaxation by 10^-4 M isoproterenol = 100%; read-out: pIC50 value Carbachol (converted). The protocol:
(§2) With respect to Compound 2, Compound 5, Compound 6, Compound 7 and Compound 16, the tracheodilative effect useful in treatment and/or prevention of respiratory diseases such as asthma was investigated by the Magnus method. A male Hartley albino guinea pig (250 to 300 g) was blow on the head and exsanguinated to death to enucleate its trachea. Strip specimens were prepared from the trachea. Each of the specimens was suspended in a Magnus tube filled with a Krebs-Henseleit solution kept at 37°C with supply of a mixed gas (95% O2, 5% CO2). A static tension of 1.0 g was loaded to record an isometric tension. Each of test compounds was cumulatively administered to the specimens separately contracted with 1 x 10^-6 M carbachol and 3 x 10^-6 M histamine to investigate its relaxing effect. After the cumulative administration, 10^-4 M isoproterenol was administered to identify the maximum relaxing effect on the trachea specimen. The maximum relaxation was regarded as 100%, and a negative logarithmic value of the concentration of the test compound, at which the specimen was relaxed by 50%, was calculated out, thereby regarding it as a pIC50 value. […]

Test [4] deals with trachea. As to the kind of experiment: Tracheodilative effect (in vitro), Magnus method, trachea strips contracted with histamine. To be noted: Cavia porcellus; relaxation of guinea pig trachea strips contracted with 3 x 10^-6 M histamine; maximum relaxation by 10^-4 M isoproterenol = 100%; read-out: pIC50 value Histamine (converted). As to the method: as §2
The subject of test [5] is trachea. As to the kind of experiment: Tracheodilative effect (in vitro), Magnus method, enucleated trachea contracted with LTD4. The settings on record: Cavia porcellus; relaxation of enucleated guinea pig trachea contracted with LTD4 3 x 10^-8 M; read-out: pIC50 value LTD4 (converted). The protocol: as §2
The pIC50 values of the compounds according to the present invention on contraction by LTD4 (concentration: 3 x 10^-8 M) were determined by using the enucleated trachea in accordance with the Magnus method in the same manner as in Test Example 1. It turns out that the compounds according to the present invention are effective on the contraction by this agent.

Take `N#Cc1cnn2c3c(cnc12)CCN3C1CCCC1` [Compound 1, 3-cyano-8-cyclopentyl-6,7-dihydro-8H-pyrrolo[3,2-e]pyrazolo[1,5-a]pyrimidine]: the inhibition in vivo at 100 mg/kg in test [1] turned out to be 33.4%; in test [2] it was 22.2%.

On to `CCC(C)N1CCc2cnc3c(C#N)cnn3c21` (stereo not shown) [Compound 2, 8-sec-butyl-3-cyano-6,7-dihydro-8H-pyrrolo[3,2-e]pyrazolo[1,5-a]pyrimidine], for which the IC50 in the test on trachea [3] was 19.1 µM; in the test on trachea [4] it was 6.31 µM. The inhibition in vivo at 100 mg/kg was 50% in test [1] and 52.2% in test [2].

With `N#Cc1cnn2c3c(c(Cl)nc12)CCN3C1CCCC1` [Compound 3, 5-chloro-3-cyano-8-cyclopentyl-6,7-dihydro-8H-pyrrolo[3,2-e]pyrazolo[1,5-a]pyrimidine], the inhibition in vivo at 100 mg/kg in test [1] turned out to be 22.8%; in test [2], 7.7%.

Turning to `CCC(C)N1CCc2c(Cl)nc3c(C#N)cnn3c21` (stereo not shown) [Compound 4, 8-sec-butyl-5-chloro-3-cyano-6,7-dihydro-8H-pyrrolo[3,2-e]pyrazolo[1,5-a]pyrimidine], the inhibition in vivo at 100 mg/kg in test [1] was 33.2%; in test [2] it was 24.7%.

For `N#Cc1cnn2c3c(c(N)nc12)CCN3C1CCCC1` [Compound 5, 5-amino-3-cyano-8-cyclopentyl-6,7-dihydro-8H-pyrrolo[3,2-e]pyrazolo[1,5-a]pyrimidine], the values for the IC50 in the test on trachea [3], in the test with trachea [4] and with trachea [5] were 18.6 µM, 12.6 µM and 4.07 µM, respectively. Further, the results for the inhibition in vivo at 100 mg/kg in test [1] and in test [2] were 32.1% and 52.9%, respectively.

On to `N#Cc1cnn2c3c(c(N)nc12)CCN3C1CCCCC1` [Compound 6, 5-amino-3-cyano-8-cyclohexyl-6,7-dihydro-8H-pyrrolo[3,2-e]pyrazolo[1,5-a]pyrimidine], for which the IC50 is 22.4 µM in the test on trachea [3], 16.2 µM with trachea [4] and 11.2 µM in the test with trachea [5].

Turning to `CCC(C)N1CCc2c(N)nc3c(C#N)cnn3c21` (stereo not shown) [Compound 7, 5-amino-8-sec-butyl-3-cyano-6,7-dihydro-8H-pyrrolo[3,2-e]pyrazolo[1,5-a]pyrimidine], the IC50 in the test on trachea [3] is 18.2 µM; in the test on trachea [4], 15.5 µM; in the test with trachea [5], 3.72 µM. The results for the inhibition in vivo at 100 mg/kg in test [1] and in test [2] were 36.5% and 49.8%, respectively.

Turning to `CC(C)(C)N1CCc2cnc3c(C#N)cnn3c21` [Compound 14, 8-tert-butyl-3-cyano-6,7-dihydro-8H-pyrrolo[3,2-e]pyrazolo[1,5-a]pyrimidine], the inhibition in vivo at 100 mg/kg in test [1] was found to be 40.4%; in test [2] it was 8.7%.

In the case of `CC(C)(C)N1CCc2c(Cl)nc3c(C#N)cnn3c21` [Compound 15, 8-tert-butyl-5-chloro-3-cyano-6,7-dihydro-8H-pyrrolo[3,2-e]pyrazolo[1,5-a]pyrimidine], the figures for the inhibition in vivo at 100 mg/kg in test [1] and in test [2] were 36.5% and 25.8%, respectively.

Consider `CC(C)(C)N1CCc2c(N)nc3c(C#N)cnn3c21` [Compound 16, 5-amino-8-tert-butyl-3-cyano-6,7-dihydro-8H-pyrrolo[3,2-e]pyrazolo[1,5-a]pyrimidine], for which the IC50 in the test with trachea [3] was 23.4 µM; with trachea [4], 16.2 µM.

As for `Cn1c(=O)c2[nH]cnc2n(C)c1=O` [Theophylline, theophylline, reference compound], the results for the IC50 with trachea [3], with trachea [4] and with trachea [5] were 2950 µM, 977 µM and 112 µM, respectively. In addition, the inhibition in vivo at 100 mg/kg turned out to be 39.5% in test [1] and 37.7% in test [2].
